Measured values published in ChEMBL document CHEMBL4622922, “Discovery of novel potent GPR40 agonists containing imidazo[1,2-a]pyridine core as antidiabetic agents” (Bioorg Med Chem, 2020).

What was measured:
[1] = Hepatotoxicity in HFD fed/STZ-treated diabetic C57BL/6 mouse model assessed as increase in ALT level in blood at 30 mg/kg, po administered for 4 weeks; format: toxicity, organism-based; settings: in vivo, 672 h
[2] = Hepatotoxicity in HFD fed/STZ-treated diabetic C57BL/6 mouse model assessed as increase in AST level in blood at 30 mg/kg, po administered for 4 weeks; format: toxicity, organism-based; settings: in vivo, 672 h
[3] = target: Free fatty acid receptor 1 (Homo sapiens, UniProt O14842); experiment: Agonist activity at GPR40 (unknown origin)
[4] = Hypoglycemic activity in normoglycemic ICR mouse assessed as blood glucose level at 30 mg/kg, po administered 30 mins prior to glucose challenge and measured at 1 hr post-compound administration by OGTT; format: ADME, organism-based; settings: in vivo
Mus musculus = experiment: Glucose lowering activity in po dosed normoglycemic ICR mouse assessed as suppression of blood glucose level administered for 30 mins followed by glucose challenge and measured upto 120 mins by OGTT; format: functional, organism-based
[5] = Hypoglycemic activity in normoglycemic ICR mouse at 90 mg/kg, po administered for 30 mins followed by glucose challenge and measured upto 120 mins by OGTT; format: ADME, organism-based; settings: in vivo
[6] = Clearance in Sprague-Dawley rat at 10 mg/kg, po by LC-MS/MS analysis; format: ADME, organism-based; settings: in vivo
[7] = Cmax in Sprague-Dawley rat at 10 mg/kg, po by LC-MS/MS analysis; format: ADME, organism-based; set-up: dose 10 mg/kg, route oral; settings: in vivo
[8] = Tmax in Sprague-Dawley rat at 10 mg/kg, po by LC-MS/MS analysis; format: ADME, organism-based; settings: in vivo
[9] = AUC (0 to 24 hrs) in Sprague-Dawley rat at 10 mg/kg, po by LC-MS/MS analysis; format: ADME, organism-based; set-up: time < 24 hr, dose 10 mg/kg, route oral; settings: in vivo
[10] = Half life in Sprague-Dawley rat at 10 mg/kg, po by LC-MS/MS analysis; format: ADME, organism-based; settings: in vivo

Free fatty acid receptor 1, sequence (O14842 whole entry): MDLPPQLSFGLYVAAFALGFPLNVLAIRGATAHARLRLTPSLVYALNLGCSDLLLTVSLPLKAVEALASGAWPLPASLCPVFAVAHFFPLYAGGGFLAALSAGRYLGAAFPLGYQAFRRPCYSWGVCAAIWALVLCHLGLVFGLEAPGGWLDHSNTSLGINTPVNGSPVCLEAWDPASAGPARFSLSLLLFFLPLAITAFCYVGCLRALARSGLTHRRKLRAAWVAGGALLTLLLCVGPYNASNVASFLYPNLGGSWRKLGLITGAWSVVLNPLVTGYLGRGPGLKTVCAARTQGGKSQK

| SMILES | EC50 [3] [nM] | Activity [1] | Activity [2] | Activity [4] | other results |
| --- | --- | --- | --- | --- | --- |
| Cc1cc(OCCCS(C)(=O)=O)cc(C)c1-c1cccc(COc2ccc3c(c2)OC[C@H]3CC(=O)O)c1 | – | Toxic | Toxic | – | – |
| CC#CC(CC(=O)O)c1ccc(OCc2ccc3nc(-c4ccc(C)cc4C)cn3c2)cc1 (configuration not stated) | 316 | – | – | – | – |

More lines, in order of falling EC50 [3], values ahead:

| EC50 [3] [nM] | SMILES | Activity [1] | Activity [2] | Activity [4] | other results |
| --- | --- | --- | --- | --- | --- |
| 507 | CC#CC(CC(=O)O)c1ccc(OCc2ccc3nc(-c4ccc(C)cc4)cn3c2)cc1 (configuration not stated) | – | – | – | – |
| 231 | CC#CC(CC(=O)O)c1ccc(OCc2ccn3cc(-c4ccccc4OCC)nc3c2)cc1 (configuration not stated) | – | – | Non-Toxic | – |
| 47 | CC#CC(CC(=O)O)c1ccc(OCc2ccc3nc(-c4ccc(OC)cc4)cn3c2)cc1 (configuration not stated) | Non-Toxic | Non-Toxic | Non-Toxic | Activity (Mus musculus): Dose-dependent effect; Activity [5]: Non-Toxic; CL/F [6]: 0.454 mL/min/kg; Cmax [7]: 16300 ng/mL; Tmax [8]: 8.26 h; AUC(0-t) at 24 h [9]: 288 µg·h/mL; half-life [10]: 5.93 h |
